Test results taken from article PMC7020312 (CPT: Pharmacometrics & Systems Pharmacology, 2020).
Read-outs that look alike come from different tables or passages of the source.

Assays:
[1] = Physicochemical properties used as PBPK inputs; conditions: samidorphan, unpublished data provided by Alkermes
[2] = Blood-to-plasma partition ratio and fraction unbound in plasma; format: in vitro ADME
[3] = Caco-2 apical-to-basolateral apparent permeability; format: in vitro ADME; conditions: human
[4] = Unbound intrinsic metabolic clearance; format: in vitro ADME; conditions: human
[5] = system: non-CYP3A4 enzymes; assay: Unbound intrinsic metabolic clearance; format: in vitro ADME; conditions: human
[6] = target: T1, CYP3A4 (Homo sapiens, UniProt P08684); format: in vitro ADME
[7] = Renal clearance / renal excretion of unchanged drug; conditions: human, in vivo
[8] = target: CYP2D6 (Homo sapiens, UniProt P10635); assay: CYP2D6 competitive inhibition; format: biochemical
[9] = Fraction unbound in microsomal incubation; format: in vitro ADME; conditions: 0.5 mg/mL microsomal incubation; unpublished data provided by Alkermes
[10] = cited from earlier work
[11] = system: human μ‐opioid receptor; conditions: in vitro; cited from earlier work
[12] = system: human κ‐opioid receptor; conditions: in vitro; cited from earlier work
[13] = system: human δ‐opioid receptor; conditions: in vitro; cited from earlier work
[14] = system: μ‐opioid receptors; conditions: in vitro; cited from earlier work
[15] = system: κ‐opioid receptors; conditions: in vitro; cited from earlier work
[16] = system: δ‐opioid receptors; conditions: in vitro; cited from earlier work
[17] = system: opioid receptor; conditions: cited from earlier work
[18] = system: CYP1A2; assay: Unbound intrinsic metabolic clearance assigned to CYP1A2; format: in vitro ADME; conditions: human, human liver microsomes and recombinant enzymes
[19] = system: CYP2C8; assay: Unbound intrinsic metabolic clearance assigned to CYP2C8; format: in vitro ADME; conditions: human, human liver microsomes and recombinant enzymes
[20] = system: UGT1A4; assay: Unbound intrinsic metabolic clearance assigned to UGT1A4; format: in vitro ADME; conditions: human, human liver microsomes and recombinant enzymes
[21] = system: FMO3; assay: Unbound intrinsic metabolic clearance assigned to FMO3; format: in vitro ADME; conditions: human, human liver microsomes and recombinant enzymes
[22] = olanzapine PBPK input, cited from earlier work
[23] = target: T1, CYP3A4; conditions: cited from earlier work
[24] = cited from earlier work; remark: listed apart in the source
[25] = ± itraconazole 200 mg q.d., observed, sublingual BUP/SAM 2/2

T1 sequence (P08684 whole entry): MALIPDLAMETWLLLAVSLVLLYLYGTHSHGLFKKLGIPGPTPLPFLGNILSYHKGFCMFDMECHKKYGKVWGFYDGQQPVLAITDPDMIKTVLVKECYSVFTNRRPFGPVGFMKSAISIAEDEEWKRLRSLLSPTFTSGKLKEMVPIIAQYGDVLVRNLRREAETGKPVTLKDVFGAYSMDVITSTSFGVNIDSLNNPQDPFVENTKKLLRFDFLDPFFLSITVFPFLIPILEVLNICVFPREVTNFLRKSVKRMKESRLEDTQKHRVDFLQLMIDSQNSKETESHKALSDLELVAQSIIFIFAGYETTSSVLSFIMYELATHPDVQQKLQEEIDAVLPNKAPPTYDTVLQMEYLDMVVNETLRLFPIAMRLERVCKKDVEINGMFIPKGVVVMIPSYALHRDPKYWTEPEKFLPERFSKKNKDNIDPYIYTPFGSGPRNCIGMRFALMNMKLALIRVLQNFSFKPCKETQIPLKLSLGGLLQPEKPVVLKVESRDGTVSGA
Chain of CYP2D6 (P10635 whole entry): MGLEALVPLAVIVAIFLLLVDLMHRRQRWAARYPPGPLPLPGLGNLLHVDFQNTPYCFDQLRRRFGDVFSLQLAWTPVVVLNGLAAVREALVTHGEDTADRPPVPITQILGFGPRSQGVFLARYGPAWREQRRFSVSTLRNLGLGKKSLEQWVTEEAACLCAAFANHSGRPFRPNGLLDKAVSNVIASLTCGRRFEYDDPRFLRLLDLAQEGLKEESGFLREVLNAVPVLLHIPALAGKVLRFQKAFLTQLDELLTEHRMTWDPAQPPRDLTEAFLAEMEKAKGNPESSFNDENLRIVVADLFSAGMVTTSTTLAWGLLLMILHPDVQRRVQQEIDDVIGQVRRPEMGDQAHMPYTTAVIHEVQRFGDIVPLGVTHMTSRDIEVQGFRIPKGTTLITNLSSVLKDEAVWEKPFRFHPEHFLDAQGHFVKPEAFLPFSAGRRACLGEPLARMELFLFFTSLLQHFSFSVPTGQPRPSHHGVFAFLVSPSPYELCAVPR

For `NC(=O)c1ccc2c(c1O)[C@]13CCN(CC4CC4)[C@H](C2)[C@]1(O)CCC(=O)C3` [Samidorphan, samidorphan], which pKa ([1]; pKa1 (acid)) is on record?
The pKa was 7.5.

And the pKa ([1]; pKa2 (base))?
The pKa was 8.2.

What about the Compound type [1] of the same compound?
Its Compound type is “Ampholyte”.

What about the fraction unbound ([2]; plasma) of the same compound?
The fraction unbound was 0.69.

What about the “B:P (blood‐to‐plasma partition ratio)” value ([2]; samidorphan, unpublished data provided by Alkermes) of the same compound?
Its value is 1.

And the Papp A→B ([3]; Caco-2, pH 6.5)?
The Papp A→B was 18.8 ×10⁻⁶ cm/s.

What about the microsomal CLint [4] of the same compound?
Its microsomal CLint is 11.2 µL/min/mg.

And the microsomal CLint [5]?
Its microsomal CLint is 5.22 µL/min/mg.

What about the microsomal CLint [6] of the same compound?
Its microsomal CLint is 5.93 µL/min/mg.

What about the CL renal [7] of the same compound?
Its CL renal is 183 mL/min.

And the Ki [8]?
Its Ki is 41.5 µM.

And the “fumic at 0.5 mg/mL” value [9]?
The value was 0.86.

What about the “AUC ratio (geometric mean)” value [10, 25] of the same compound?
The value was 1.50.

What about the “Cmax ratio (geometric mean)” value [10, 25] of the same compound?
The value was 1.12.

And the “binding affinity (in words)” value [11]?
The value was “high affinity”.

And the “binding affinity (in words)” value [12]?
The value was “high affinity”.

And the “binding affinity (in words)” value [13]?
The value was “high affinity”.

And the “functional activity (in words)” value [14]?
Its value is “antagonist”.

And the “functional activity (in words)” value [15]?
The value was “partial agonist”.

What about the “functional activity (in words)” value [16] of the same compound?
The value was “partial agonist”.

And the “in vivo function (in words)” value [17]?
The value was “opioid receptor antagonist”.

With `Cc1cc2c(s1)Nc1ccccc1N=C2N1CCN(C)CC1` [Olanzapine, olanzapine] as the compound, how does the Papp A→B ([3]; Caco-2, pH 7.4) read?
The Papp A→B was 17.4 ×10⁻⁶ cm/s.

And the microsomal CLint [4]?
The microsomal CLint was 57.9 µL/min/mg.

And the microsomal CLint [18]?
Its microsomal CLint is 23.7 µL/min/mg.

What about the microsomal CLint [19] of the same compound?
The microsomal CLint was 4.98 µL/min/mg.

What about the microsomal CLint ([6]; human liver microsomes and recombinant enzymes) of the same compound?
Its microsomal CLint is 4.42 µL/min/mg.

And the microsomal CLint [20]?
Its microsomal CLint is 20.6 µL/min/mg.

What about the microsomal CLint [21] of the same compound?
Its microsomal CLint is 4.28 µL/min/mg.

What about the Compound type ([22]; ref Callaghan et al.21) of the same compound?
Its Compound type is “Monoprotic base”.

And the “log P” value ([22]; ref El‐Ela et al.29)?
The value was 2.89.

What about the “contribution of CYP3A4 to the overall clearance” value [23] of the same compound?
Its value is under 10%.

And the “administered dose excreted renally as unchanged drug” value [24]?
The value was 7%.

And the “CLR (renal clearance)” value ([24]; olanzapine, ref Kassahun et al.15)?
The value was 0.81 L/h.

What about the “AUC lower in smokers than in nonsmokers” value ([10]; pharmacokinetics study (N = 49)) of the same compound?
The value was 15%.

And the “increase in clearance, smokers vs. nonsmokers” value ([10]; population pharmacokinetic analysis (N = 523))?
The value was 55%.
